Read-outs that look alike come from different tables or passages of the source.
Legend:
[1] = test system: ZIKV; assay: ZIKV infectious (cytoprotection, XTT) assay; format: cell-based, Zika virus; details: Zika virus, Vero, Cell Line Vero (Example 92); read-out: ZIKV EC50
Protocol: Vero cells were passaged in DMEM medium in T-75 flasks prior to use in the antiviral assay. On the day preceding the assay, the cells were split 1:2 to assure they were in exponential growth phase at the time of infection. The cells were resuspended at […] cells per well in tissue culture medium and added to flat bottom microtiter plates in a volume of […]. The plates were incubated at 37° C./5% CO2 overnight to allow for cell adherence. Separately, Zika virus was titrated in LLCMK2 cells to define the inoculum for use in the antiviral assay. Virus was diluted in DMEM medium such that the amount of virus added to each well in a volume of […] was the amount determined to achieve 85 to 95% cell killing at 5 days post-infection. Following incubation test plates were stained with XTT dye. XTT solution was prepared daily as a stock solution of 1 mg/mL in RPM11640. PMS solution was prepared at 0.15 mg/mL in PBS and stored in the dark at −20° C. XTT/PMS stock was prepared immediately before use by adding […] of PMS per mL of XTT solution. Fifty microliters of XTT/PMS was added to each well of the plate, and the plate was reincubated for 4 hours at 37° C. Plates were sealed with adhesive plate sealers ad shaken gently to mix the soluble formazan product, and the plate was read spectrophotometrically read 450/650 nm with a Molecular Devices Vmax plate reader. The raw data was collected from Softmax Pro and imported into a Microsoft Excel XLfit4 spreadsheet for analysis using four parameter curve fit calculations.

[2] = test system: DENV2 New Guinea C; assay: Anti-Dengue virus cytoprotection assay; format: cell-based, Dengue virus type 2
Protocol: Cell Preparation—BHK21 cells (Syrian golden hamster kidney cells, ATCC catalog #CCL-I 0), Vero cells (African green monkey kidney cells, ATCC catalog #CCL-81), or Huh-7 cells (human hepatocyte carcinoma) were passaged in DMEM supplemented with 10% FBS, 2 mM L-glutamine, 100 U/mL penicillin, and 100 μg/mL streptomycin in T-75 flasks prior to use in the antiviral assay. On the day preceding the assay, the cells were split 1:2 to assure they were in an exponential growth phase at the time of infection. Total cell and viability quantification was performed using a hemocytometer and Trypan Blue dye exclusion. Cell viability was greater than 95% for the cells to be utilized in the assay. The cells were resuspended at 3×10^3 ([…] for Vero cells and Huh-7 cells) cells per well in tissue culture medium and added to flat bottom microtiter plates in a volume of 100 μL. The plates were incubated at 37° C./5% CO2 overnight to allow for cell adherence.
Virus Preparation—The Dengue virus type 2 New Guinea C strain was obtained from ATCC (catalog #VR-1584) and was grown in LLC-MK2 (Rhesus monkey kidney cells; catalog #CCL-7.1) cells for the production of stock virus pools. An aliquot of virus pretitered in BHK21 cells was removed from the freezer (−80° C.) and allowed to thaw slowly to room temperature in a biological safety cabinet. Virus was resuspended and diluted into assay medium (DMEM supplemented with 2% heat-inactivated FBS, 2 mM L-glutamine, 100 U/mL penicillin, and 100 μg/mL streptomycin) such that the amount of virus added to each well in a volume of 100 μL was the amount determined to yield 85 to 95% cell killing at 6 days post-infection.
Plate Format—Each plate contains cell control wells (cells only), virus control wells (cells plus virus), triplicate drug toxicity wells per compound (cells plus drug only), as well as triplicate experimental wells (drug plus cells plus virus).
Efficacy and Toxicity XTT-Following incubation at 37° C. in a 5% CO2 incubator, the test plates were stained with the tetrazolium dye XTT (2,3-bis(2-methoxy-4-nitro-5-sulfophenyl)-5-[(phenylamino)carbonyl]-2H-tetrazolium hydroxide). XTT-tetrazolium was metabolized by the mitochondrial enzymes of metabolically active cells to a soluble formazan product, allowing rapid quantitative analysis of the inhibition of virus-induced cell killing by antiviral test substances. XTT solution was prepared daily as a stock of 1 mg/mL in RPMI 1640. Phenazine methosulfate (PMS) solution was prepared at 0.15 mg/mL in PBS and stored in the dark at −20° C. XTT/PMS stock was prepared immediately before use by adding 40 μL of PMS per ml of XTT solution. Fifty microliters of XTT/PMS was added to each well of the plate and the plate was reincubated for 4 hours at 37° C. Plates were sealed with adhesive plate sealers and shaken gently or inverted several times to mix the soluble formazan product and the plate was read spectrophotometrically at 450/650 nm with a Molecular Devices Vmax plate reader.
Data Analysis —Raw data was collected from the Softmax Pro 4.6 software and imported into a Microsoft Excel spreadsheet for analysis. The percent reduction in viral cytopathic effect compared to the untreated virus controls was calculated for each compound. The percent cell control value was calculated for each compound comparing the drug treated uninfected cells to the uninfected cells in medium alone.

[3] = test system: RSV; assay: Antiviral assay RSV; format: cell-based; details: human respiratory syncytial virus, Huh-7, read-out: RSV EC50
Protocol: Cell Preparation-HEp2 cells (human epithelial cells, ATCC catalog #CCL-23) were passaged in DMEM supplemented with 10% FBS, 2 mM L-glutamine, 100 U/mL penicillin, 100 μg/mL streptomycin 1 mM sodium pyruvate, and 0.1 mM NEAA, T-75 flasks prior to use in the antiviral assay. On the day preceding the assay, the cells were split 1:2 to assure they were in an exponential growth phase at the time of infection. Total cell and viability quantification was performed using a hemocytometer and Trypan Blue dye exclusion. Cell viability was greater than 95% for the cells to be utilized in the assay. The cells were resuspended at 1×10^4 cells per well in tissue culture medium and added to flat bottom microtiter plates in a volume of 100 μL. The plates were incubated at 37° C./5% CO2 overnight to allow for cell adherence. […] Virus was resuspended and diluted into assay medium (DMEM supplemented with 2% heat-inactivated FBS, 2 mM L-glutamine, 100 U/mL penicillin, 100 μg/mL streptomycin, 1 mM sodium pyruvate, and 0.1 mM NEAA) such that the amount of virus added to each well in a volume of 100 μL was the amount determined to yield 85 to 95% cell killing at 6 days post-infection. Efficacy and Toxicity XTT-Plates were stained and analyzed as previously described for the Dengue cytoprotection assay.

[4] = test system: HRV; assay: Antiviral assay HRV; format: cell-based; details: HeLa, read-out: HRV EC50
[5] = test system: ZIKV; assay: ZIKV infectious (cytoprotection, XTT) assay; format: cell-based; details: Zika virus, Huh-7, Cell Line Huh-7 (Example 92); read-out: ZIKV EC50

**Q.** Which EC50 [1] does the source give for C#CC1(O)C(O)[C@@H](COP(=O)(OCOC(=O)C(C)(C)C)OCOC(=O)C(C)(C)C)O[C@H]1n1ccc(=O)[nH]c1=O (stereo partly shown) [EIDD-02290] here?
**A.** 1060 nM

**Q.** And the EC50 ([2]; DENV2, Huh-7, read-out: DENV2 EC50)?
**A.** 240 nM

**Q.** And the EC50 ([2]; DENV2, Vero, read-out: DENV2 EC50)?
**A.** 7560 nM

**Q.** What about the EC50 ([2]; DENV2, read-out: DENV2 EC50) of the same compound?
**A.** 7760 nM

**Q.** And the EC50 [3]?
**A.** 90000 nM

**Q.** And the EC50 [4]?
**A.** 50 nM

**Q.** And the EC50 [5]?
**A.** 310 nM

Source: patent US11192914B2, “Alkyne containing nucleotide and nucleoside therapeutic compositions and uses related thereto” (Emory University, priority 2016, dated 2021)
